Patent US20050245563A1 (Millennium Pharmaceuticals, Inc., priority 2003, published 2005)
Counter-ions that a name gives are not always drawn.

biological target: T1, human Chk1 (GST-Chk1) (Homo sapiens, UniProt O14757); test: Chk1 DELFIA kinase assay (2 nM GST-Chk1, 600 μM ATP); format: biochemical; details: Biotin-GLYRSPSMPEN-amide substrate
T1 construct: made in house; host or cells: insect cells (baculovirus, Bac-to-Bac)
T1 sequence (O14757 1-476): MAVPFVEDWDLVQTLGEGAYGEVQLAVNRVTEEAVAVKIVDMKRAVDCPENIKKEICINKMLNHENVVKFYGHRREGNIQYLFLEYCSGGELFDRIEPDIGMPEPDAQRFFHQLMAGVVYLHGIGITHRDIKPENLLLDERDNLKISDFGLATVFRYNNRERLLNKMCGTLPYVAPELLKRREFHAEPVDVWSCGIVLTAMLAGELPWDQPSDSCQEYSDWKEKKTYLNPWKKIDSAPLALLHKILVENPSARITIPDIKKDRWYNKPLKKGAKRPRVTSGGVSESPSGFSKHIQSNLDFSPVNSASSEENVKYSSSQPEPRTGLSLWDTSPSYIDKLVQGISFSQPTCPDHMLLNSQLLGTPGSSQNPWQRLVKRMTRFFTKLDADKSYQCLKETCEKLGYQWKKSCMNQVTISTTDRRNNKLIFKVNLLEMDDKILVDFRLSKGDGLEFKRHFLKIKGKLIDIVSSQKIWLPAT
Procedure, shortened: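 Enzyme is N-terminal GST-Chk1 from baculovirus/insect cells, assayed with 1 μM biotin-GLYRSPSMPEN-amide in pH 7.5 Tris buffer, 4% DMSO and 10 mM MgCl2 for 50 min at room temperature. EDTA-stopped reactions were captured on NeutrAvidin. Phospho-peptide was detected by anti-phospho-Ser216-Cdc25c antibody with europium-labeled secondary and time-resolved fluorescence.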

IC50, < 1000 nM:
Cc1[nH]nc2c1c(=O)n(CCCN)c1ccc(CCCN(C)C)cc21 [Example 296, 5-(3-Amino-propyl)-8-(3-dimethylamino-propyl)-3-methyl-2,5-dihydro-pyrazolo[4,3-c]quinolin-4-one]
Cc1[nH]nc2c1c(=O)n(CCCN)c1ccc(CCCN3CCCC3)cc21 [Example 297, 5-(3-Amino-propyl)-3-methyl-8-(3-pyrrolidin-1-yl-propyl)-2,5-dihydro-pyrazolo[4,3-c]quinolin-4-one]
CC(=O)NCCCc1ccc2c(c1)c1n[nH]c(C)c1c(=O)n2CCCN [Example 298, N-{3-[5-(3-Amino-propyl)-3-methyl-4-oxo-4,5-dihydro-2H-pyrazolo[4,3-c]quinolin-8-yl]-propyl}-acetamide]
Cc1[nH]nc2c1c(=O)n(CCCN)c1ccc(CCc3ccccn3)cc21 [Example 299, 5-(3-Amino-propyl)-3-methyl-8-(2-pyridin-2-yl-thyl)-2,5-dihydro-pyrazolo[4,3-c]quinolin-4-one]
CCc1ccc2c(c1)c1n[nH]c(C)c1c(=O)n2CCCNC [Example 300, 8-Ethyl-3-methyl-5-(3-methylamino-propyl)-2,5-dihydro-pyrazolo[4,3-c]quinolin-4-one]
Cc1[nH]nc2c1c(=O)n(CCCN)c1ccc(CCCO)cc21 [Example 301, 5-(3-Amino-propyl)-8-(3-hydroxy-propyl)-3-methyl 2,5-dihydro-pyrazolo[4,3-c]quinolin-4-one]
CCCc1ccc2c(c1)c1n[nH]c(C)c1c(=O)n2CCCN [Example 302, 5-(3-Amino-propyl)-3-methyl-8-propyl-2,5-dihydro-pyrazolo[4,3-c]quinolin4-one]
C#Cc1ccc2c(c1)c1n[nH]c(C)c1c(=O)n2C[C@H]1CCCNC1 [Example 303, 8-Ethynyl-3-methyl-5-piperidin-3-ylmethyl-2,5-dihydro-pyrazolo[4,3-c]quinolin-4-one]
C#Cc1ccc2c(c1)c1n[nH]c(CC)c1c(=O)n2CCCNC [Example 304, 8-Ethynyl-3-ethyl-5-(3-methylamino-propyl)-2,5-dihydro-pyrazolo[4,3-c]quinolin-4-one]
COCCc1[nH]nc2c1c(=O)n(CCCN)c1ccc(C#CCN3CCCC3)cc21 [Example 305, 5-(3-Amino-propyl)-3-(2-methoxy-ethyl)-8-(3-pyrrolidin-1-yl-prop-1-ynyl)-2,5-dihydro-pyrazolo[4,3-c]quinolin-4-one]
Cc1[nH]nc2c1c(=O)n(CCCN)c1ccc(-c3ccc(C#N)cc3)cc21 [Example 306, 4-[5-(3-Amino-propyl)-3-methyl-4-oxo-4,5-dihydro-2H-pyrazolo[4,3-c]quinolin-8-yl]-benzonitrile]
Cc1[nH]nc2c1c(=O)n(CCCN)c1ccc(-c3ccc(N(C)C)cc3)cc21 [Example 307, 5-(3-Amino-propyl)-8-(4-dimethylamino-phenyl)-3-methyl-2,5-dihydro-pyrazolo [4,3-c]quinolin-4-one]
Cc1[nH]nc2c1c(=O)n(CCCN)c1ccc(-c3cccnc3)cc21 [Example 308, 5-(3-Amino-propyl)-3-methyl-8-pyridin-3-yl-2,5-dihydro-pyrazolo[4,3-c]quinolin-4-one]
Cc1[nH]nc2c1c(=O)n(CCCN)c1ccc(-c3ccoc3)cc21 [Example 309, 5-(3-Amino-propyl)-8-furan-3-yl-3-methyl-2,5-dihydro-pyrazolo[4,3-c]quinolin-4-one]
Cc1[nH]nc2c1c(=O)n(CCCN)c1ccc(N3CCCC3)cc21 [Example 310, 5-(3-Amino-propyl)-3-methyl-8-pyrrolidin-1-yl-2,5-dihydro-pyrazolo[4,3-c]quinolin-4-one]
CCc1[nH]nc2c1c(=O)n(CCCN)c1ccc(Cl)cc21 [Example 311, 5-(3-Amino-propyl)-8-chloro-3-ethyl-2,5-dihydro-pyrazolo[4,3-c]quinolin-4-one hydrochloride]
CCOCCc1[nH]nc2c1c(=O)n(CCCN)c1ccc(Cl)cc21 [Example 320, 5-(3-Amino-propyl)-8-chloro-3-(2-ethoxy-ethyl)-2,5-dihydro-pyrazolo[4,3-c]quinolin-4-one]
CCCOCCc1[nH]nc2c1c(=O)n(CCCN)c1ccc(Cl)cc21 [Example 321, 5-(3-Amino-propyl)-8-chloro-3-(2-propoxy-ethyl)-2,5-dihydro-pyrazolo[4,3-c]quinolin-4-one]
CCCCOCCc1[nH]nc2c1c(=O)n(CCCN)c1ccc(Cl)cc21 [Example 322, 5-(3-Amino-propyl)-3-(2-butoxy-ethyl)-8-chloro-2,5-dihydro-pyrazolo[4,3-c]quinolin-4-one]
NCCCn1c(=O)c2c(C3CCOC3)[nH]nc2c2cc(Cl)ccc21 (centres unmarked) [Example 327, 5-(3-Amino-propyl)-8-chloro-3-(tetrahydro-furan-3-yl)-2,5-dihydro-pyrazolo[4,3-c]quinolin-4-one]
NCCCn1c(=O)c2c(CCO)[nH]nc2c2cc(C#CCN3CCCC3)ccc21 [Example 328, 5-(3-Amino-propyl)-3-(2-hydroxy-ethyl)-8-(3-pyrrolidin-1-yl-prop-1-ynyl)-2,5-dihydro-pyrazolo [4,3-c]quinolin-4-one]
CCc1[nH]nc2c1c(=O)n(CCCN)c1ccc(C#CCN3CCCC3)cc21 [Example 329, 5-(3-Amino-propyl)-3-ethyl-8-(3-pyrrolidin-1-yl-prop-1-ynyl)-2,5-dihydro-pyrazolo[4,3-c]quinolin-4-one]
CCc1[nH]nc2c1c(=O)n(CCCN)c1ccc(CCCN3CCCC3)cc21 [Example 330, 5-(3-Amino-propyl)-3-ethyl-8-(3-pyrrolidin-1-yl-propyl)-2,5-dihydro-pyrazolo[4,3-c]quinolin-4-one]
CCc1[nH]nc2c1c(=O)n(CCCNC)c1ccc(Cl)cc21 [Example 331, 8-Chloro-3-ethyl-5-(3-methylamino-propyl)-2,5-dihydro-pyrazolo[4,3-c]quinolin4-one]
Cc1[nH]nc2c1c(=O)n(CCCNC(=O)c1ccc(Cl)cc1)c1ccc(C#CCN3CCCC3)cc21 [Example 332, 4-Chloro-N-{3-[3-methyl-4-oxo-8-(3-pyrrolidin-1-yl-prop-1-ynyl)-2,4-dihydro-pyrazolo[4,3-c]quinolin-5-yl]-propyl}-benzamide]
Cc1[nH]nc2c1c(=O)n(CCCNC(=O)c1ccc(Cl)cc1)c1ccc(CCCN3CCCC3)cc21 [Example 333]
Cc1[nH]nc2c1c(=O)n(CCCN)c1cc(C(=O)NCCN(C)C)ccc21 [Example 335, 5-(3-Amino-propyl)-3-methyl-4-oxo-4,5-dihydro-2H-pyrazolo[4,3-c]quinoline-7-carboxylic acid (2-dimethylamino-ethyl)-amide]
Cc1[nH]nc2c1c(=O)n(CCCN)c1cc(C(=O)NCCN3CCCC3)ccc21 [Example 336, 5-(3-Amino-propyl)-3-methyl-4-oxo-4,5-dihydro-2H-pyrazolo[4,3-c]quinolin-7-carboxylic acid (2-pyrrolidin-1-yl-ethyl)-amide]
Cc1[nH]nc2c1c(=O)n(CCCN)c1cc(C(=O)NCCCN(C)C)ccc21 [Example 337]
Cc1[nH]nc2c1c(=O)n(CCCN)c1cc(C(=O)NCCCCN(C)C)ccc21 [Example 338]
Cc1[nH]nc2c1c(=O)n(CCCN)c1cc(I)ccc21 [Example 339, 5-(3-Aminopropyl)-7-iodo-3-methyl-2,5-dihydro-pyrazolo[4,3-c]quinolin4-one]
Cc1[nH]nc2c1c(=O)n(CCCN)c1cc(C#CCN3CCCC3)ccc21 [Example 340, 5-(3-Amino-propyl)-3-methyl-7-(3-pyrrolidin-1-yl-prop-1-ynyl)-2,5-dihydro-pyrazolo [4,3-c]quinolin-4-one]
Cc1[nH]nc2c1c(=O)n(CCCN)c1cc(CCCN3CCCC3)ccc21 [Example 341, 5-(3-Amino-propyl)-3-methyl-7-(3-pyrrolidin-1-yl-propyl)-2,5-dihydro-pyrazolo[4,3-c]quinolin-4-one]
Cc1[nH]nc2c1c(=O)n(C)c1c(C#CCN)cc(Cl)cc21 [Example 342, 6-(3-amino-prop-1-ynyl)-8-chloro-3,5-dimethyl-2,5-dihydro-pyrazolo[4,3-c]quinolin-4-one]
Cc1[nH]nc2c1c(=O)n(CCCN)c1ccc(C(=O)NCCN(C)C)cc21 [Example 352, 5-(3-Amino-propyl)-3-methyl-4-oxo-4,5-dihydro-2H-pyrazolo[4,3-c]quinoline-8-carboxylic acid (2-dimethylamino-ethyl)-amide]
